Test results as given in US12116370B2, “Condensed heterocyclic compound having a bridgehead nitrogen atom or salt thereof, agricultural or horticultural insecticide comprising the compound, and method for using the insecticide” (Nihon Nohyaku Co., Ltd., priority 2019, dated 2024).

Legend:
Assay type in all cases: in vivo
Plutella xylostella = assay: Insecticidal test on Plutella xylostella; conditions: in Brassica rapa, 144 h, read-out: insecticidal efficacy (mortality rate) activity level
Excerpt: Adults of P. xylostella were released onto Chinese cabbage seedlings and allowed to lay eggs thereon. At 2 days after the release of the adults, the Chinese cabbage seedlings with laid eggs were dipped for about 30 seconds in agrochemical formulations diluted to 500 ppm, each of which contained a different kind of condensed heterocyclic compound having a bridgehead nitrogen atom represented by the general formula (1) of the present invention as an active ingredient. After air-dried, the seedlings were kept in a thermostatic chamber at 25° C. At 6 days after the dip treatment, the number of hatched larvae per plot was counted, the mortality rate of P. xylostella was calculated according to the formula shown below, and the insecticidal efficacy was evaluated according to the criteria of Test Example 1. This test was conducted in triplicate using 10 adults of P. xylostella per plot.

Laodelphax striatellus = assay: Insecticidal test on Laodelphax striatellus; conditions: in Oryza sativa, 192 h, read-out: insecticidal efficacy (corrected mortality rate) activity level
Excerpt: The condensed heterocyclic compounds having a bridgehead nitrogen atom represented by the general formula (1) of the present invention or salts thereof were separately dispersed in water and diluted to 500 ppm. Rice plant seedlings (variety: Nihonbare) were dipped in the agrochemical dispersions for 30 seconds. After air-dried, each seedling was put into a separate glass test tube and inoculated with ten 3rd-instar larvae of L. striatellus, and then the glass test tubes were capped with cotton plugs. At 8 days after the inoculation, the numbers of surviving larvae and dead larvae of L. striatellus were counted, the corrected mortality rate was calculated according to the formula shown below, and the insecticidal efficacy was evaluated according to the criteria of Test Example 1.

[1] = system: L1 stage larvae of H. contortus; assay: Larval motility assay on Haemonchus contortus; conditions: 96 h, 4 days, relative to DMSO only, read-out: percent motility inhibition
Description: Dimethyl sulfoxide (DMSO) diluted solutions of various compounds of the present invention were added at the final concentration of 50 ppm to the wells of a 96-well plate containing a predetermined conditioned medium. Twenty L1 stage larvae of H. contortus were introduced into each well of the 96-well plate. The plate was allowed to stand for 4 days, and then larval motility was examined. The percent motility inhibition in the wells of each treatment was calculated relative to the wells of treatment with DMSO only.

[2] = system: adults of Ctenocephalides felis; assay: Assay for oral parasiticidal activity against adults of Ctenocephalides felis; conditions: read-out: mortality rate
Description: Newly-emerged adults of C. felis were placed into test cages (10 adults per test cage). DMSO diluted solutions of various compounds of the present invention were added to aliquots of bovine blood at the final concentration of 50 ppm and orally administered to the adults of C. felis using a feeder. The mortality rate was examined on the following day. Aberrant adults were regarded as the dead.

[3] = system: L1 stage larvae of D. immitis; assay: Larval motility assay on Dirofilaria immitis; conditions: 72 h, 3 days, relative to DMSO only, read-out: percent motility inhibition
Description: Five hundred L1 stage larvae of D. immitis were diluted in a predetermined conditioned medium and introduced into each well of a 96-well plate. DMSO diluted solutions of various compounds of the present invention were added at the final concentration of 50 ppm to the wells of the 96-well plate. The plate was allowed to stand for 3 days, and then larval motility was examined. The percent motility inhibition in the wells of each treatment was calculated relative to the wells of treatment with DMSO only.

| SMILES | mortality at 500 ppm (Plutella xylostella) | mortality at 500 ppm (Laodelphax striatellus) | inhibition at 50 ppm [1] | mortality at 50 ppm [2] | inhibition at 50 ppm [3] |
| --- | --- | --- | --- | --- | --- |
| CCS(=O)(=O)c1cc(/C(Br)=N/OCCSC)cnc1-c1nc2cc(C(F)(F)F)ccn2n1 [Compound 3-19, 5-ethylsulfonyl-N-(2-methylthioethoxy)-6-(7-trifluoromethyl-[1,2,4]triazolo[1,5-a]pyridin-2-yl)nicotinimidoyl bromide] | 100% | 100% | – | – | – |
| CCS(=O)(=O)c1cc(/C(=N/OCCSC)OC)cnc1-c1nc2cc(C(F)(F)F)ccn2n1 [Compound 3-1, methyl 5-ethylsulfonyl-N-(2-methylthioethoxy)-6-(7-(trifluoromethyl)-[1,2,4]triazolo[1,5-a]pyridin-2-yl)nicotinimidate] | 100% | 100% | – | – | – |
| CCS(=O)(=O)c1cc(/C=N/OCC(F)F)cnc1-c1nc2cc(C(F)(F)F)ccn2n1 [Compound 1-7] | 100% | 100% | ≥ 50% | ≥ 50% | ≥ 50% |
| CCS(=O)(=O)c1cc(/C(=N/OCCSC)c2ccccc2)cnc1-c1nc2cc(C(F)(F)F)ccn2n1 [Compound 3-46, (5-ethylsulfonyl-6-(7-trifluoromethyl-[1,2,4]triazolo[1,5-a]pyridin-2-yl)pyridin-3-yl)phenylmethanone O-(2-methylthioethyl)oxime] | 100% | 100% | – | – | – |
| CCS(=O)(=O)c1ccc(/C=N/OCC(F)(F)F)nc1-c1nc2cc(C(F)(F)C(F)(F)F)ncn2n1 [Compound 2-42, 5-ethylsulfonyl-6-(7-pentafluoroethyl-[1,2,4]triazolo[1,5-c]pyridin-2-yl)picolinaldehyde O-(2,2,2-trifluoroethyl)oxime] | 100% | 100% | – | – | – |
| CCS(=O)(=O)c1cc(/C(=N/OCCSC)C2CC2)cnc1-c1nc2cc(C(F)(F)F)ccn2n1 [Compound 3-28] | 100% | 100% | – | – | – |
